US11667651B2, “Aminopyridine derivatives as phosphatidylinositol phosphate kinase inhibitors” (HiberCell, Inc., priority 2017, dated 2023)

Key:
Type in all cases: biochemical
PIP4K2A [1] = molecular target: T1, PIP4K2A (Homo sapiens, UniProt P48426); experiment: ADP-glo kinase assay PIP4K 2A (Table 3); design: made in house; host or cells: E. coli; conditions: compounds listed under IC50 bins
T1 sequence (P48426 1-406): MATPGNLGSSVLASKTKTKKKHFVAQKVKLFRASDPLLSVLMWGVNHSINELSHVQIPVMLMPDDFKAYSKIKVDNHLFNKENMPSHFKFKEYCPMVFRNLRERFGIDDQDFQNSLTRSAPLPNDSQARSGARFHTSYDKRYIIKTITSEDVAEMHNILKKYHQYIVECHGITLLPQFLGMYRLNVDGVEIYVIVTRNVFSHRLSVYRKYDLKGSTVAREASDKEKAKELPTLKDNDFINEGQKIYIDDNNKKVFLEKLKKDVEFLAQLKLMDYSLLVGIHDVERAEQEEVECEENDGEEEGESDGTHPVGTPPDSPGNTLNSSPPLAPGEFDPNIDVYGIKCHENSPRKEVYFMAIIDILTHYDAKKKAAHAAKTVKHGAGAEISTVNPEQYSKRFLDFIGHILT
Procedure, shortened: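 Full-length PIP4K2A (4 nM in the mix) with 100 μM PI(5)P diC8 pre-incubated 15 min with compound in MOPS pH 7.2, 25 mM MgCl2; ATP added (60 μM solution), 1 h at RT. ADP formed read by ADP-Glo luminescence; 10-point curves versus DMSO controls fitted to IC50.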

PIP4K2B = molecular target: T2, PIP4K2B (Homo sapiens, UniProt P78356); experiment: Trans-FI P kinase assay PIP4K2B (Table 4); conditions: compounds listed under IC50 bins; read-out: Trans-FI P kinase assays: PIP4K2B IC50
T2 construct: made in house; host or cells: E. coli
T2 sequence (P78356 1-416): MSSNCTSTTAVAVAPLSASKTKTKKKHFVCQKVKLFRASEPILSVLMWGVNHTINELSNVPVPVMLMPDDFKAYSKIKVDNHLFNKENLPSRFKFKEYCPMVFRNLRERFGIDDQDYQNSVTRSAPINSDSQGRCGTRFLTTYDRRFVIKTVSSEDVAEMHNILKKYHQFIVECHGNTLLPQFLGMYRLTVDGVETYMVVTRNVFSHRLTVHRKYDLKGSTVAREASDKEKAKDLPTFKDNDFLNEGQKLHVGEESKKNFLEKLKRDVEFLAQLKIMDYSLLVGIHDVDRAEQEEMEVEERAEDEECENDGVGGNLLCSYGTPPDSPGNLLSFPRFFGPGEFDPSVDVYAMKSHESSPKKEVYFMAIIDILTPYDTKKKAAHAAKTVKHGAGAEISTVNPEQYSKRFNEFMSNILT
Procedure, shortened: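 Transcreener FI detection (Ex 584/Em 623) of GDP, converted via calibration curve, gives IC50 from residual activity versus log concentration (highest 4.8 μM). Reaction: 80 μM PI5P plus DOPE carrier, 100 μM GTP, 5 nM GST-tagged enzyme, pH 7.3 HEPES with MgCl2 and 5% DMSO, 2 h after 1 h enzyme-compound preincubation at 27° C.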

PIP4K2A [2] = molecular target: T1, PIP4K2A; experiment: Kinase Assay PIP4K2 A (Table 2); design: 4 nM PIP4K2A (full length protein, SignalChem); purchased SignalChem; conditions: compounds listed under IC50 bins
Procedure, shortened: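 Full-length PIP4K2A (4 nM in the added mix, with 100 μM PI(5)P diC8) pre-incubated 15 min at RT with compounds (10-point, 3-fold series) in 20 mM MOPS pH 7.2, 25 mM MgCl2, 0.005% Tween 20. ATP added from a 60 μM solution, 1 h at RT; ADP-Glo luminescence, IC50 fitted from % inhibition versus DMSO.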

| SMILES | IC50 (PIP4K2A [1]) | IC50 (PIP4K2B) | IC50 (PIP4K2A [2]) |
| --- | --- | --- | --- |
| CN(C)C(=O)c1ccc(-c2ccc(Nc3cnc4c(c3)N(C(=O)OC(C)(C)C)CCO4)nc2)cc1 [Example 45, tert-butyl 7-((5-(4-(dimethylcarbamoyl)phenyl)pyridin-2-yl)amino)-2,3-dihydro-1H-pyrido[2,3-b][1,4]oxazine-1-carboxylate] | 100 to 1000 nM | 10 to 100 nM | 10 to 100 nM |
| CN(C)C(=O)c1ccc(-c2ccc(Nc3cnc4c(c3)NCCO4)nc2)cc1 [Example 46, 4-(6-((2,3-dihydro-1H-pyrido[2,3-b][1,4]oxazin-7-yl)amino)pyridin-3-yl)-N,N-dimethylbenzamide] | 100 to 1000 nM | 10 to 100 nM | 10 to 100 nM |
| CN(C)C(=O)c1ccc(-c2ccc(Nc3cncc(OC(F)F)c3)nc2)cc1 [Example 49, 4-(6-((5-(difluoromethoxy)pyridin-3-yl)amino)pyridin-3-yl)-N,N-dimethylbenzamide] | 100 to 1000 nM | > 1000 nM | 100 to 1000 nM |
| CN(C)C(=O)c1ccc(-c2ccc(Nc3cnc4c(c3)OCCO4)nc2)cc1 [Example 50, 4-(6-((2,3-dihydro-[1,4]dioxino[2,3-b]pyridin-7-yl)amino)pyridin-3-yl)-N,N-dimethylbenzamide] | 100 to 1000 nM | 10 to 100 nM | 10 to 100 nM |
| CN(C)C(=O)c1ccc(-c2ccc(Nc3ccc(CCN4CCOCC4)nc3)nc2)cc1 [Example 51, N,N-dimethyl-4-(6-((6-(2-morpholinoethyl)pyridin-3-yl)amino)pyridin-3-yl)benzamide] | > 1000 nM | > 1000 nM | > 1000 nM |
| CC(=O)N1CCN(C)c2ncc(Nc3ccc(-c4ccc(C(=O)N(C)C)cc4)cn3)cc21 [Example 59, 4-(6-((1-acetyl-4-methyl-1,2,3,4-tetrahydropyrido[2,3-b]pyrazin-7-yl)amino)pyridin-3-yl)-N,N-dimethylbenzamide] | 100 to 1000 nM | 10 to 100 nM | 10 to 100 nM |
| CN(C)C(=O)c1ccc(-c2ccc(Nc3ccc(N4CCOCC4)nc3)nc2)cc1 [Example 60, N,N-dimethyl-4-(6-((6-morpholinopyridin-3-yl)amino)pyridin-3-yl)benzamide] | > 1000 nM | > 1000 nM | > 1000 nM |
| Cc1nc2ncc(Nc3ccc(-c4ccc(C(=O)N(C)C)cc4)cn3)cc2o1 [Example 61, N,N-dimethyl-4-(6-((2-methyloxazolo[4,5-b]pyridin-6-yl)amino)pyridin-3-yl)benzamide] | 100 to 1000 nM | > 1000 nM | 100 to 1000 nM |
| CN(C)C(=O)c1ccc(-c2ccc(Nc3cnc4c(c3)OCO4)nc2)cc1 [Example 62, 4-(6-([1,3]dioxolo[4,5-b]pyridin-6-ylamino)pyridin-3-yl)-N,N-dimethylbenzamide] | 100 to 1000 nM | > 1000 nM | 100 to 1000 nM |
| CN(Cc1cncs1)C(=O)c1ccc(-c2ccc(Nc3cccnc3)nc2)cc1 [Example 71, N-methyl-4-(6-(pyridin-3-ylamino)pyridin-3-yl)-N-(thiazol-5-ylmethyl)benzamide] | > 1000 nM | > 1000 nM | > 1000 nM |
| CN(C)C(=O)c1ccc(-c2ccc(Nc3cncc(N4CCN(Cc5ccccc5)C4=O)c3)nc2)cc1 [Example 73, 4-(6-((5-(3-benzyl-2-oxoimidazolidin-1-yl)pyridin-3-yl)amino)pyridin-3-yl)-N,N-dimethylbenzamide] | 1 to 10 nM | 10 to 100 nM | 1 to 10 nM |
| C[C@@H](c1ccccc1)N1CCN(c2cncc(Nc3ccc(-c4ccc(C(=O)N(C)C)cc4)cn3)c2)C1=O [Example 80, (S)—N,N-dimethyl-4-(6-((5-(2-oxo-3-(1-phenylethyl)imidazolidin-1-yl)pyridin-3-yl)amino)pyridin-3-yl)benzamide] | 10 to 100 nM | 10 to 100 nM | 10 to 100 nM |
| O=C1CCCN1c1ccc(-c2ccc(Nc3cnc4c(c3)N3C(=O)CC[C@H]3CO4)nc2)cc1 [Example 84, (S)-2-((5-(4-(2-oxopyrrolidin-1-yl)phenyl)pyridin-2-yl)amino)-6,6a,7,8-tetrahydro-9H-pyrido[2,3-b]pyrrolo[1,2-d][1,4]oxazin-9-one] | 1 to 10 nM | 10 to 100 nM | 1 to 10 nM |
| CC(=O)N1CCOc2ncc(Nc3ccc(-c4ccc(N5CCCC5=O)cc4)cn3)cc21 [Example 86, 1-(4-(6-((1-acetyl-2,3-dihydro-1H-pyrido[2,3-b][1,4]oxazin-7-yl)amino)pyridin-3-yl)phenyl)pyrrolidin-2-one] | 10 to 100 nM | 10 to 100 nM | 1 to 10 nM |
| CN(C)C(=O)c1ccc(-c2ccc(Nc3cnc4c(c3)N(C(=O)CO)CCO4)nc2)cc1 [Example 89, 4-(6-((1-(2-hydroxyacetyl)-2,3-dihydro-1H-pyrido[2,3-b][1,4]oxazin-7-yl)amino)pyridin-3-yl)-N,N-dimethylbenzamide] | 10 to 100 nM | 10 to 100 nM | 1 to 10 nM |

Next, values leading:

| IC50 (PIP4K2A [1]) | IC50 (PIP4K2B) | IC50 (PIP4K2A [2]) | SMILES |
| --- | --- | --- | --- |
| 100 to 1000 nM | 10 to 100 nM | 10 to 100 nM | CN(C)C(=O)c1ccc(-c2ccc(Nc3cnc4c(c3)CCCO4)nc2)cc1 [Example 58, 4-(6-((3,4-dihydro-2H-pyrano[2,3-b]pyridin-6-yl)amino)pyridin-3-yl)-N,N-dimethylbenzamide] |
| 1 to 10 nM | 10 to 100 nM | ≤ 1 nM | C[C@H](c1ccccc1)N1CCN(c2cncc(Nc3ccc(-c4ccc(C(=O)N(C)C)cc4)cn3)c2)C1=O [Example 81, (R)—N,N-dimethyl-4-(6-((5-(2-oxo-3-(1-phenylethyl)imidazolidin-1-yl)pyridin-3-yl)amino)pyridin-3-yl)benzamide] |
| 10 to 100 nM | 10 to 100 nM | 1 to 10 nM | O=C1CCCN1c1ccc(-c2ccc(Nc3cnc4c(c3)N3C(=O)CC[C@@H]3CO4)nc2)cc1 [Example 85, (R)-2-((5-(4-(2-oxopyrrolidin-1-yl)phenyl)pyridin-2-yl)amino)-6,6a,7,8-tetrahydro-9H-pyrido[2,3-b]pyrrolo[1,2-d][1,4]oxazin-9-one] |
| 100 to 1000 nM | 10 to 100 nM | 10 to 100 nM | O=C1CCCN1c1ccc(-c2ccc(Nc3cnc4c(c3)OCCO4)nc2)cc1 [Example 87, 1-(4-(6-((2,3-dihydro-[1,4]dioxino[2,3-b]pyridin-7-yl)amino)pyridin-3-yl)phenyl)pyrrolidin-2-one] |
| 10 to 100 nM | 10 to 100 nM | 1 to 10 nM | CN(C)C(=O)c1ccc(-c2ccc(Nc3cnc4c(c3)N(C(=O)c3ccccc3)CCO4)nc2)cc1 [Example 94, 4-(6-((1-benzoyl-2,3-dihydro-1H-pyrido[2,3-b][1,4]oxazin-7-yl)amino)pyridin-3-yl)-N,N-dimethylbenzamide] |
| 10 to 100 nM | 10 to 100 nM | 10 to 100 nM | CN(C)C(=O)c1ccc(-c2ccc(Nc3cnc4c(c3)N(C(=O)c3ccccn3)CCO4)nc2)cc1 [Example 95, N,N-dimethyl-4-(6-((1-picolinoyl-2,3-dihydro-1H-pyrido[2,3-b][1,4]oxazin-7-yl)amino)pyridin-3-yl)benzamide] |
| 10 to 100 nM | 10 to 100 nM | 1 to 10 nM | CN(C)C(=O)c1ccc(-c2ccc(Nc3cnc4c(c3)N(C(=O)C(C)(C)CO)CCO4)nc2)cc1 [Example 96, 4-(6-((1-(3-hydroxy-2,2-dimethylpropanoyl)-2,3-dihydro-1H-pyrido[2,3-b][1,4]oxazin-7-yl)amino)pyridin-3-yl)-N,N-dimethylbenzamide] |
| 100 to 1000 nM | 10 to 100 nM | 10 to 100 nM | CN(C)C(=O)c1ccc(-c2ccc(Nc3cncc(NC(=O)c4cccc(NC(=O)OC(C)(C)C)c4)c3)nc2)cc1 [Example 98, tert-butyl (3-((5-((5-(4-(dimethylcarbamoyl)phenyl)pyridin-2-yl)amino)pyridin-3-yl)carbamoyl)phenyl)carbamate] |
